Columns and labels:
[1] = in cyclohexane; cited from earlier work
[2] = Lippert-Mataga analysis of excited state dipole moments; format: physicochemical; details: semi-empirically calculated using the Lippert-Mataga equation
Method: The calculated HOMOs/LUMOs indicate that the strong solvatofluorochromism arises from an ICT mechanism, whereby the ground state has significant electron localization on the donor side of the molecule whereas the electron density shifts to the acceptor moiety in the excited state. To more directly quantify the strong ICT character of the TTz dyes, the excited-state dipole moments were calculated using the Lippert-Mataga equation (Eq 1):
[formula] where va and vf are the wavenumbers of the absorption and emission peaks in cm^−1, respectively; μ* and μ are the excited state and ground state dipoles, respectively; ϵ0 is the vacuum permittivity, h is Planck's constant, c is the speed of light, a is the Onsager cavity radius, Δf is the orientation polarizability, ϵ is the relative permittivity, and η is the refractive index. The dipoles were calculated using Spartan 2016 software, and the Onsager cavity radii were calculated using Gaussian '09 software.
FIGS. 9A and 9B show the Stokes shift of Bu2N-TTz-Py and Ph2N-TTz-COOH versus Δf, respectively. From the slopes of the Lippert-Mataga plots, the change between the dipole moments of the ground and excited states can be determined. Even though the Lippert-Mataga equation assumes no specific solvent-solute interactions (e.g. hydrogen bonding) and ignores solute polarizability, high degrees of linearity are apparent; and therefore, the estimations of the excited state dipoles are regarded as reliable. […] Perhaps owing to the minimal solvent interactions and rapid vibrational relaxation, the estimated changes in dipole moments (Δμ) are remarkably large (Table IV). […] Therefore, it is expected that these asymmetric TTzs dyes would be well suited to give high sensitivity in sensing applications whereby small changes in the polarity of the environment can lead to large differences in the wavelengths of fluorescence.

[3] = UV-Vis absorbance, fluorescence emission and quantum yield in organic solvents; format: physicochemical; details: for peak absorbance λmax, abs: in DCM
Method: The absorption, emission, and fluorescence lifetime characteristics of all four TTz dyes were recorded in a variety of organic solvents (FIGS. 7A-7B, Table of FIG. 8). Additionally, HOMO/LUMO levels of the TTz dyes were determined computationally in Spartan 16 using B3LYP/6-31g. Molar absorptivities of all the TTz dyes ranged from 13,000 to 86,000 cm^−1M^−1. […] However, the peak absorbance of Bu2N-TTz-Py in DCM was slightly red-shifted as compared to that of Ph2N-TTz-Py (λmax, abs=429 nm vs λmax, abs=422 nm in DCM), which is attributed to the diphenylamine moiety having weaker donor characteristics. […] Due to the low estimated ground state dipole moments of the TTz dyes (μ=6-8 D), their wavelengths of absorbance remained relatively solvent independent (st. dev.=±11 nm).
4-pyridine carboxaldehyde, 4-(dibutylamino)benzaldehyde, 4-(diphenylamino)benzaldehyde, terephthalaldehyde, dithiooxamide, and all solvents used for spectroscopic measurements were purchased from Sigma-Aldrich and used without further purification. ^1H and ^13CNMR measurements were obtained with either a JEOL 300 MHz NMR or a JEOL 500 MHz NMR. High resolution mass spectra were obtained using a Thermo Fisher Scientific MSQ Plus Single Quadrupole Mass Spectrometer. Solution-state UV-Vis spectra were collected on a Cary 300 UV-Vis spectrophotometer. Time-resolved measurements were taken on a Jobin Yvon-Spex Fluorolog equipped with a 389 nm diode laser for time-resolved PL decay measurements. Igor Pro 6.3 software was used to fit PL(t) decay data to single/multiple exponential decays. Quantum yields were calculated using 9,10-diphenylanthracene as a reference (quantum yield [ΦF] in cyclohexane=0.97).^40-41 Density functional theory (DFT) calculations were performed with Spartan computational software using B3LYP^42-43 density functional and 6-31G*^44 basis set. Temperature studies were conducted using a 10 μM Bu2N-TTz-Py MeTHF solution placed inside of a Norrell 502 NMR tube and sequentially submerged in the following liquid N2 baths:octanol (−16° C.), acetonitrile (−41° C.), acetone (−94° C.), pentane (−131° C.), MeTHF (−136° C.), and liquid N2 itself (−196° C.). The phosphorescence spectrum of Bu2N-TTz-Py (see S2) was collected similarly at −196° C. by pumping with 389 nm light while inside a liquid nitrogen bath and then probing the emission within 2 sec of removing from the bath. Human embryonic kidney cells (HEK 293T) were a kind gift from Prof. Bryan Dickinson, and Mouse macrophage J774A.1 cells were a kind gift from Prof. Deborah Nelson at the University of Chicago. Cells were cultured in Dulbecco's Modified Eagle's Medium (Invitrogen Corporation, USA) containing 10% heat inactivated Fetal Bovine Serum (FBS) (Invitrogen Corporation, USA), 100 U/mL penicillin, and 100 μg/mL streptomycin. Cells were maintained at 37° C. under 5% CO2.

[4] = TCSPC fluorescence lifetime in solvents; format: physicochemical
From the text: TCSPC measurements of the TTz dyes show a general upward trend for fluorescent lifetimes as the polarity increases in aprotic solvents—from 1.50-1.89 ns in nonpolar solvents to ~3.00 ns in polar, aprotic solvents (Table of FIG. 8). The fluorescence lifetimes in protic solvents have the opposite trend; that is, a decrease in the fluorescence lifetime as the polarity increases (e.g. for Ph2N-TTz-COOH: τf, iPrOH=2.40 ns, τf, MeOH=1.80 ns). The trend reversal in the fluorescence lifetime can most likely be attributed to the presence of hydrogen bonding in protic solvents. […] At the same time, the non-radiative rates of each TTz generally increases as solvent polarity increases. […] Regardless, the fact that the fluorescence lifetimes are solvent dependent opens up the possibility of using these TTz dyes for measuring micelle formation and viscosity in living cells using fluorescence lifetime imaging (FLIM).
4-pyridine carboxaldehyde, 4-(dibutylamino)benzaldehyde, 4-(diphenylamino)benzaldehyde, terephthalaldehyde, dithiooxamide, and all solvents used for spectroscopic measurements were purchased from Sigma-Aldrich and used without further purification. ^1H and ^13CNMR measurements were obtained with either a JEOL 300 MHz NMR or a JEOL 500 MHz NMR. High resolution mass spectra were obtained using a Thermo Fisher Scientific MSQ Plus Single Quadrupole Mass Spectrometer. […]

In the case of `c1ccc(-c2c3ccccc3c(-c3ccccc3)c3ccccc23)cc1` [9,10-diphenylanthracene], the “quantum yield [ΦF] of reference” value [1] is listed as 0.97.
In the case of `O=Cc1ccc(-c2nc3sc(-c4ccc(N(c5ccccc5)c5ccccc5)cc4)nc3s2)cc1` [Ph2N-TTz-CHO, 2-(N,N-diphenyl-4-aminophenyl)-5-(4-formylphenyl) thiazolo[5,4-d]thiazole], the “Change in Dipole Δμ” value [2] is reported as 18.0 D, the “Excited State Dipole μ*” value [2] is reported as 24.9 D and the “peak absorbance λmax, abs” value [3] is reported as 434 nm.
With `O=C(O)c1ccc(-c2nc3sc(-c4ccc(N(c5ccccc5)c5ccccc5)cc4)nc3s2)cc1` [Ph2N-TTz-COOH, 2-(N,N-diphenyl-4-aminophenyl)-5-(4-carboxyphenyl) thiazolo[5,4-d]thiazole] the “Change in Dipole Δμ” value [2] was 13.0 D, the “Excited State Dipole μ*” value [2] was 21.3 D and the “fluorescence lifetime τf, MeOH” value ([4]; MeOH) was 1.80 ns. The “fluorescence lifetime τf, iPrOH” value ([4]; iPrOH) was 2.40 ns.
In the case of `c1ccc(N(c2ccccc2)c2ccc(-c3nc4sc(-c5ccncc5)nc4s3)cc2)cc1` [Ph2N-TTz-Py, 2-(N,N-diphenyl-4-aminophenyl)-5-(4-pyridyl) thiazolo[5,4-d]thiazole], the “Change in Dipole Δμ” value [2] is reported as 14.6 D, the “Excited State Dipole μ*” value [2] is reported as 20.8 D and the “peak absorbance λmax, abs” value [3] is reported as 422 nm. For the same molecule, the “largest Stokes shift” value ([3]; largest across solvents) was 0.750 eV.

— patent US12707888B2, “Asymmetric donor-acceptor molecular dyes” (THE UNIVERSITY OF NORTH CAROLINA AT CHARLOTTE, priority 2019, dated 2026)
